According to patent US5089401A, “Method for the preparation of fructose-containing oligosaccharide” (Ensuiko Sugar Refining Co., Ltd., priority 1990, dated 1992):

Biological target: T1, β-fructofuranosidase (Microbacterium saccharophilum, UniProt Q8VW87)
T1 construct: K-1 culture; crude supernatant or purified preparation
T1 sequence (Q8VW87 37-578): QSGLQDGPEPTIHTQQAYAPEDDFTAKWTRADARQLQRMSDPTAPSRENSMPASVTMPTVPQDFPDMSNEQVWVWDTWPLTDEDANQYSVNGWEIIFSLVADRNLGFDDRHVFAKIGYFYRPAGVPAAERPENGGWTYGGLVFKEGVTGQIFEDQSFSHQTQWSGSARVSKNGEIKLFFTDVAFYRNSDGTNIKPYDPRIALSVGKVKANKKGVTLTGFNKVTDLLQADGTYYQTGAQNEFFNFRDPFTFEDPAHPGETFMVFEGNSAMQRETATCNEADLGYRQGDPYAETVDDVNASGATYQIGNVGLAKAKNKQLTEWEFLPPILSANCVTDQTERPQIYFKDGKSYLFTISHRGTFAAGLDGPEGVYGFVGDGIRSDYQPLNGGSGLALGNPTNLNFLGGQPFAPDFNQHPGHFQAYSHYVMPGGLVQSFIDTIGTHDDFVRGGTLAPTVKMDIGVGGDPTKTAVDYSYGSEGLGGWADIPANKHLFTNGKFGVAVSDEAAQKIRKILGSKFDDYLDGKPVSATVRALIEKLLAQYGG
Assay: decomposition of saccharides by the β-fructofuranosidase (substrate specificity)
Type: biochemical, Arthrobacter sp. K-1
Conditions: not given

Row | Compound | activity of the enzyme in the decomposition of the saccharide
1 | OC[C@H]1O[C@@](CO)(OC[C@@]2(O[C@H]3O[C@H](CO)[C@@H](O)[C@H](O)[C@H]3O)O[C@H](CO)[C@@H](O)[C@@H]2O)[C@@H](O)[C@@H]1O [1-kestose] | hardly exhibits activity
2 | OC[C@H]1O[C@@](CO)(O[C@H]2O[C@H](CO)[C@@H](O[C@H]3O[C@H](CO)[C@@H](O)[C@H](O)[C@H]3O)[C@H](O)[C@H]2O)[C@@H](O)[C@@H]1O [elrose, maltosyl fructoside] | active in the decomposition
3 | OC[C@H]1O[C@@](CO)(OC[C@H]2O[C@](O)(CO)[C@@H](O)[C@@H]2O)[C@@H](O)[C@@H]1O [levan biose] | hardly exhibits activity
4 | OC[C@H]1O[C@@](CO)(OC[C@H]2O[C@H](O[C@]3(CO)O[C@H](CO)[C@@H](O)[C@@H]3O)[C@H](O)[C@@H](O)[C@@H]2O)[C@@H](O)[C@@H]1O [neokestose] | active in the decomposition
5 | OC[C@H]1O[C@@](CO)(OC[C@@]2(OC[C@@]3(O[C@H]4O[C@H](CO)[C@@H](O)[C@H](O)[C@H]4O)O[C@H](CO)[C@@H](O)[C@@H]3O)O[C@H](CO)[C@@H](O)[C@@H]2O)[C@@H](O)[C@@H]1O [nistose] | hardly exhibits activity
6 | OC[C@H]1O[C@H](OC[C@H]2O[C@H](O[C@]3(CO)O[C@H](CO)[C@@H](O)[C@@H]3O)[C@H](O)[C@@H](O)[C@@H]2O)[C@H](O)[C@@H](O)[C@H]1O [raffinose] | active in the decomposition
7 | OC[C@H]1O[C@H](OC[C@H]2O[C@H](OC[C@H]3O[C@H](O[C@]4(CO)O[C@H](CO)[C@@H](O)[C@@H]4O)[C@H](O)[C@@H](O)[C@@H]3O)[C@H](O)[C@@H](O)[C@H]2O)[C@H](O)[C@@H](O)[C@H]1O [stachyose] | active in the decomposition
8 | OC[C@H]1O[C@@](CO)(O[C@H]2O[C@H](CO)[C@@H](O)[C@H](O)[C@H]2O)[C@@H](O)[C@@H]1O [sucrose] | active in the decomposition
9 | OC[C@H]1O[C@@](CO)(O[C@H]2OC[C@@H](O)[C@H](O)[C@H]2O)[C@@H](O)[C@@H]1O [xylsucrose, O-β-D-fructofuranosyl-(2→1)-O-α-D-xylopyranoside] | active in the decomposition
10 | inulobiose | hardly exhibits activity

Biological target: T1, β-fructofuranosidase
Assay: not given
Type: biochemical, Arthrobacter sp. K-1
Conditions: not given

Row | Compound | inhibitive effect of the ion on the enzyme
11 | copper | susceptible to the inhibitive effect
12 | mercury | susceptible to the inhibitive effect
13 | silver | susceptible to the inhibitive effect
14 | zinc | susceptible to the inhibitive effect

System: bifidus bacteria
Assay: not given
Conditions: cited from earlier work

Row | Compound | activity as a growth factor of bifidus bacteria
15 | OC[C@H]1O[C@@H](O[C@H]2[C@H](O)[C@@H](O)[C@@H](O[C@]3(CO)O[C@H](CO)[C@@H](O)[C@@H]3O)O[C@@H]2CO)[C@H](O)[C@@H](O)[C@H]1O [lactosucrose, O-β-D-galactopyranosyl-(1→4)-O-α-D-glucopyranosyl-(1→2)-O-β-D-fructofuranoside] | has an activity as a growth factor of bifidus bacteria
